Reference: patent US10597388B2, “Pyridazinone herbicides” (FMC CORPORATION, priority 2014, dated 2020)

How the values were obtained:
Assay in all cases: Test D controlled growth environment herbicide test, pre- and postemergence
Type in all cases: in vivo
[1] = tested on: oilseed rape (Brassica napus)
In short: (§1)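 Rating is visual, 0–100 scale (100 = complete control), made against untreated plants 14–21 d after treatment in controlled growth conditions. Postemergence sprays went onto 1- to 4-leaf plants in peat medium; preemergence sprays onto silt loam after sowing; formulation included a surfactant.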

[2] = tested on: mustard, wild (wild mustard, Sinapis arvensis)
In short: as §1

[3] = tested on: wheat, spring (spring wheat, Triticum aestivum)
In short: as §1

[4] = tested on: wheat, winter (winter wheat, Triticum aestivum)
In short: as §1

[5] = tested on: chamomile (scentless chamomile, Matricaria inodora)
In short: as §1

[6] = tested on: barley, spring (spring barley, Hordeum vulgare)
In short: as §1

[7] = tested on: ryegrass, Italian (Italian ryegrass, Lolium multiflorum)
In short: as §1

[8] = tested on: bluegrass (annual bluegrass, Poa annua)
In short: as §1

[9] = tested on: speedwell (bird's-eye speedwell, Veronica persica)
In short: as §1

[10] = tested on: foxtail, green (green foxtail, Setaria viridis)
In short: as §1

[11] = tested on: lambsquarters (Chenopodium album)
In short: as §1

[12] = tested on: field poppy (Papaver rhoeas)
In short: as §1

[13] = tested on: blackgrass (Alopecurus myosuroides)
In short: as §1

[14] = Postemergence, 31 g ai/ha, scale 0 to 100 (0 no effect, 100 complete control)
[15] = Postemergence, 125 g ai/ha, visual rating on scale 0 (no effect) to 100 (complete control), 14 to 21 d
[16] = Postemergence, 250 g ai/ha, scale 0 to 100 (0 no effect, 100 complete control)
[17] = Preemergence, 62 g ai/ha, scale 0 to 100 (0 no effect, 100 complete control)
[18] = Preemergence, 125 g ai/ha, scale 0 to 100 (0 no effect, 100 complete control)
[19] = Preemergence, 250 g ai/ha, scale 0 to 100 (0 no effect, 100 complete control)
[20] = postemergence, 62 g ai/ha, scale 0 to 100, 0 no effect, 100 complete control

Cc1cc(C)c2sc(C)c(-c3c(OC(=O)OC(C)C)c(C)nn(C)c3=O)c2c1 [Compound 67]
Oilseed Rape plant response rating [1, 14]: 70 | Plant response rating, Oilseed Rape [1, 15]: 85 | Plant response rating, Oilseed Rape [1, 16]: 90 | Plant response rating (scale of 0 to 100), Oilseed Rape ([1]; Preemergence, 31 g ai/ha): 10 | Plant response rating, Oilseed Rape [1, 17]: 20 | Plant response rating, Oilseed Rape [1, 18]: 25 | Plant response rating, Oilseed Rape [1, 19]: 25 | Plant response rating, Oilseed Rape [1, 20]: 80 | Mustard, Wild plant response rating [2, 14]: 25 | Plant response rating, Mustard, Wild [2, 15]: 40 | Plant response rating, Mustard, Wild [2, 16]: 65 | Plant response rating (scale of 0 to 100), Mustard, Wild ([2]; Preemergence, 31 g ai/ha): 0 | Plant response rating, Mustard, Wild [2, 17]: 0 | Plant response rating, Mustard, Wild [2, 18]: 0 | Plant response rating, Mustard, Wild [2, 19]: 0 | Plant response rating, Mustard, Wild [2, 20]: 35 | Wheat, Spring plant response rating [3, 14]: 0 | Plant response rating, Wheat, Spring [3, 15]: 0 | Plant response rating, Wheat, Spring [3, 16]: 5 | Plant response rating (scale of 0 to 100), Wheat, Spring ([3]; Preemergence, 31 g ai/ha): 0 | Plant response rating, Wheat, Spring [3, 17]: 0 | Plant response rating, Wheat, Spring [3, 18]: 0 | Plant response rating, Wheat, Spring [3, 19]: 10 | Plant response rating, Wheat, Spring [3, 20]: 0 | Wheat, Winter plant response rating [4, 14]: 0 | Plant response rating, Wheat, Winter [4, 15]: 0 | Plant response rating, Wheat, Winter [4, 16]: 0 | Plant response rating (scale of 0 to 100), Wheat, Winter ([4]; Preemergence, 31 g ai/ha): 0 | Plant response rating, Wheat, Winter [4, 17]: 0 | Plant response rating, Wheat, Winter [4, 18]: 0 | Plant response rating, Wheat, Winter [4, 19]: 5 | Plant response rating, Wheat, Winter [4, 20]: 0 | Chamomile plant response rating [5, 14]: 95 | Plant response rating, Chamomile [5, 15]: 100 | Plant response rating, Chamomile [5, 16]: 100 | Plant response rating (scale of 0 to 100), Chamomile ([5]; Preemergence, 31 g ai/ha): 95 | Plant response rating, Chamomile [5, 17]: 95 | Plant response rating, Chamomile [5, 18]: 100 | Plant response rating, Chamomile [5, 19]: 100 | Plant response rating, Chamomile [5, 20]: 100 | Barley, Spring plant response rating [6, 14]: 0 | Plant response rating, Barley, Spring [6, 15]: 10 | Plant response rating, Barley, Spring [6, 16]: 20 | Plant response rating (scale of 0 to 100), Barley, Spring ([6]; Preemergence, 31 g ai/ha): 0 | Plant response rating, Barley, Spring [6, 17]: 0 | Plant response rating, Barley, Spring [6, 18]: 0 | Plant response rating, Barley, Spring [6, 19]: 0 | Plant response rating, Barley, Spring [6, 20]: 5 | Ryegrass, Italian plant response rating [7, 14]: 85 | Plant response rating, Ryegrass, Italian [7, 15]: 98 | Plant response rating, Ryegrass, Italian [7, 16]: 100 | Plant response rating (scale of 0 to 100), Ryegrass, Italian ([7]; Preemergence, 31 g ai/ha): 75 | Plant response rating, Ryegrass, Italian [7, 17]: 80 | Plant response rating, Ryegrass, Italian [7, 18]: 85 | Plant response rating, Ryegrass, Italian [7, 19]: 90 | Plant response rating, Ryegrass, Italian [7, 20]: 90 | Bluegrass plant response rating [8, 14]: 5 | Plant response rating, Bluegrass [8, 15]: 20 | Plant response rating, Bluegrass [8, 16]: 30 | Plant response rating (scale of 0 to 100), Bluegrass ([8]; Preemergence, 31 g ai/ha): 0 | Plant response rating, Bluegrass [8, 17]: 0 | Plant response rating, Bluegrass [8, 18]: 20 | Plant response rating, Bluegrass [8, 19]: 50 | Plant response rating, Bluegrass [8, 20]: 15 | Speedwell plant response rating [9, 14]: 70 | Plant response rating, Speedwell [9, 15]: 75 | Plant response rating, Speedwell [9, 16]: 100 | Plant response rating (scale of 0 to 100), Speedwell ([9]; Preemergence, 31 g ai/ha): 80 | Plant response rating, Speedwell [9, 17]: 75 | Plant response rating, Speedwell [9, 18]: 100 | Plant response rating, Speedwell [9, 19]: 100 | Plant response rating, Speedwell [9, 20]: 75 | Foxtail, Green plant response rating [10, 14]: 80 | Plant response rating, Foxtail, Green [10, 15]: 100 | Plant response rating, Foxtail, Green [10, 16]: 100 | Plant response rating (scale of 0 to 100), Foxtail, Green ([10]; Preemergence, 31 g ai/ha): 15 | Plant response rating, Foxtail, Green [10, 17]: 80 | Plant response rating, Foxtail, Green [10, 18]: 85 | Plant response rating, Foxtail, Green [10, 19]: 85 | Plant response rating, Foxtail, Green [10, 20]: 90 | Lambsquarters plant response rating [11, 14]: 90 | Plant response rating, Lambsquarters [11, 15]: 100 | Plant response rating, Lambsquarters [11, 16]: 100 | Plant response rating (scale of 0 to 100), Lambsquarters ([11]; Preemergence, 31 g ai/ha): 95 | Plant response rating, Lambsquarters [11, 17]: 100 | Plant response rating, Lambsquarters [11, 18]: 100 | Plant response rating, Lambsquarters [11, 19]: 100 | Plant response rating, Lambsquarters [11, 20]: 100 | Field Poppy plant response rating [12, 14]: 80 | Plant response rating, Field Poppy [12, 15]: 100 | Plant response rating, Field Poppy [12, 16]: 100 | Plant response rating (scale of 0 to 100), Field Poppy ([12]; Preemergence, 31 g ai/ha): 100 | Plant response rating, Field Poppy [12, 17]: 100 | Plant response rating, Field Poppy [12, 18]: 100 | Plant response rating, Field Poppy [12, 19]: 100 | Plant response rating, Field Poppy [12, 20]: 100 | Blackgrass plant response rating [13, 14]: 70 | Plant response rating, Blackgrass [13, 15]: 85 | Plant response rating, Blackgrass [13, 16]: 95 | Plant response rating (scale of 0 to 100), Blackgrass ([13]; Preemergence, 31 g ai/ha): 75 | Plant response rating, Blackgrass [13, 17]: 75 | Plant response rating, Blackgrass [13, 18]: 75 | Plant response rating, Blackgrass [13, 19]: 80 | Plant response rating, Blackgrass [13, 20]: 75
